How the values were obtained:
luciferase = test: No-enzyme control: activity of luciferase towards the luciferin derivative (background luminescence); details: on a BMG luminometer; minus P450
Description: The reactions (Table 1) were assembled by first adding the water and 1 M BisTris solutions in individual 0.5 ml microfuge tubes, then adding the other components except for the GST #3 solution. Finally, the GST #3 (Figure 12) solution was added to the reactions, the resulting solution was mixed, and the time of addition noted. […]
The GST #3 addition was performed last and the solutions were mixed immediately after addition of GST #3. […] After mixing, the light produced by the solution was measured using a Turner TD 20/20 luminometer.
After assembly, the enzyme stock solutions were diluted 1:10 into 10 mM HEPES, pH 7.5 and the following additions were made to the reactions.
A 5 µl sample of the luciferol DMF solution was added to each of the reactions above and a timer was started upon the addition of the first luciferol/DMF solution to reaction 1. All reactions were kept at room temperature.
After incubating 5 minutes at room temperature, the light produced by these samples was measured using a Turner TD 20 luminometer.
To initiate the conversions, 5 µl of luciferol solution was added to reactions […], 6-9, and 11-15, and 10 µl of luciferol was added to reactions 5 and 10 and the tubes mixed after that addition. Immediately after luciferol addition to reaction 1, a timer was started and the time of luciferol addition to the other tubes noted. After mixing, reaction 11-15 were placed at 37°C.
After incubating 10 minutes at room temperature, the light produced by these samples was read using a Turner TD 20 luminometer (Table 18).
To initiate Step 1, 45 µl of enzyme and buffer were added to each well.
Solution A and Solution B are components of the NADPH Regeneration System (V9510, Promega Corp., Madison WI). […] Solution B contains 40 units/ml glucose-6-phosphate dehydrogenase in 5 mM citrate pH 5.5.

CYP4F12 = biological target: T1, CYP4F12 (Homo sapiens, UniProt Q9HCS2); test: Two-step luminescent P450 screen of luciferin derivatives; format: biochemical; details: result in words
T1 construct: purchased Discovery Labware (BD/Gentest); host or cells: insect cell expression system (membrane fractions)
T1 sequence (Q9HCS2 1-524): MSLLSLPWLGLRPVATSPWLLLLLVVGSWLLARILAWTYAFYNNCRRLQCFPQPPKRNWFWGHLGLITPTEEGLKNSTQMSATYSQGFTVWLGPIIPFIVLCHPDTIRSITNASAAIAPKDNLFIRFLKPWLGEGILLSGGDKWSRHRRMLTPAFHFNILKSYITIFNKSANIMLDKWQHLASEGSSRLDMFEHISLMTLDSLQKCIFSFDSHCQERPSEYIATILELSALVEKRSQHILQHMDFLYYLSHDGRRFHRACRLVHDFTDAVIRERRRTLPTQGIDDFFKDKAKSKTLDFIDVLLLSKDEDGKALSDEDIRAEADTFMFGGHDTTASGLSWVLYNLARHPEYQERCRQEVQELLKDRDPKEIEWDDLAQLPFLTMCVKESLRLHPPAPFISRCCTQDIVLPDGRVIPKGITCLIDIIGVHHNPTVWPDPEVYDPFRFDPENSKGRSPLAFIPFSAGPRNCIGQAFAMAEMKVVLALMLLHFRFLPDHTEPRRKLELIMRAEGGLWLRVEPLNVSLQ
Description: (§1) P450s are Supersomes™ purchased from Discovery Labware (BD/Gentest). […] HLM is human liver microsomes.
(§2) 1X substrate concentration: 50 µM.

[1] = system: CYP3A subfamily, CYP3A4, CYP3A5 and CYP3A7; test: Two-step luminescent P450 screen of luciferin derivatives, selectivity for the CYP3A subfamily; format: biochemical, human; details: result in words
Description: as §1, §2

CYP3A4 = CYP3A4 (Homo sapiens, UniProt P08684); test: Two-step luminescent P450 screen of luciferin derivatives; details: result in words
Sequence of CYP3A4 (P08684 2-503 limits assumed): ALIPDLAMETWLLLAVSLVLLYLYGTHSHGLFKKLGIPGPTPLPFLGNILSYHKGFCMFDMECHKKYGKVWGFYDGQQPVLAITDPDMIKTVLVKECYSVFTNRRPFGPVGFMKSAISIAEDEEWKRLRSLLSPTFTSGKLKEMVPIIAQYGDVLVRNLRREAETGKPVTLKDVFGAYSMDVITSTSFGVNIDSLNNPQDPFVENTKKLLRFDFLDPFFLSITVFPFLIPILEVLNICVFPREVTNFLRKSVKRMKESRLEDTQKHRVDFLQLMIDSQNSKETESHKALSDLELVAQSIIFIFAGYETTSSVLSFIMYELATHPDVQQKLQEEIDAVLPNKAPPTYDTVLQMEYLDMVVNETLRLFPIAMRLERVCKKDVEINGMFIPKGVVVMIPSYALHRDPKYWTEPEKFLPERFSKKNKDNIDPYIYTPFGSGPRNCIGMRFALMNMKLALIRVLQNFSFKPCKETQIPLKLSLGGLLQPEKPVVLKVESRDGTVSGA

CYP4A11 = biological target: T2, CYP4A11 (Homo sapiens, UniProt Q02928); test: as above; format: biochemical; details: result in words
T2 construct: purchased Discovery Labware (BD/Gentest); host or cells: insect cell expression system (membrane fractions)
T2 sequence (Q02928 5-519): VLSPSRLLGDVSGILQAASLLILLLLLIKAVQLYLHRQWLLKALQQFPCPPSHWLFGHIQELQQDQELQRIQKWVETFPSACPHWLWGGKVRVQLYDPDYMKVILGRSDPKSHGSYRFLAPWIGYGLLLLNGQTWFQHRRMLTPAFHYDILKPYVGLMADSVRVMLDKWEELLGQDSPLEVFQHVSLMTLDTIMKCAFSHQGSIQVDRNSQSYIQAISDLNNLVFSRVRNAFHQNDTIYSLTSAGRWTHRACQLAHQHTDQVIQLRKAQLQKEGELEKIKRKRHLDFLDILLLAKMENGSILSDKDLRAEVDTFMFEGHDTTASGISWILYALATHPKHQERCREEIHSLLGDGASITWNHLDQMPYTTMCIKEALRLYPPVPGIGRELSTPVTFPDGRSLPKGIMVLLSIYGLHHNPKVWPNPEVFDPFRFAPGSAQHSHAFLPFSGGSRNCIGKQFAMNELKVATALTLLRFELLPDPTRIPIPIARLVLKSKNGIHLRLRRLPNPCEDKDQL
Description: as §1, §2

CYP2C19 = biological target: T3, CYP2C19 (Homo sapiens, UniProt P33261); test: as above; format: biochemical; details: for P450 activity / selectivity with the derivative as substrate: result in words
T3 construct: purchased Discovery Labware (BD/Gentest); host or cells: insect cell expression system (membrane fractions)
T3 sequence (P33261 whole entry): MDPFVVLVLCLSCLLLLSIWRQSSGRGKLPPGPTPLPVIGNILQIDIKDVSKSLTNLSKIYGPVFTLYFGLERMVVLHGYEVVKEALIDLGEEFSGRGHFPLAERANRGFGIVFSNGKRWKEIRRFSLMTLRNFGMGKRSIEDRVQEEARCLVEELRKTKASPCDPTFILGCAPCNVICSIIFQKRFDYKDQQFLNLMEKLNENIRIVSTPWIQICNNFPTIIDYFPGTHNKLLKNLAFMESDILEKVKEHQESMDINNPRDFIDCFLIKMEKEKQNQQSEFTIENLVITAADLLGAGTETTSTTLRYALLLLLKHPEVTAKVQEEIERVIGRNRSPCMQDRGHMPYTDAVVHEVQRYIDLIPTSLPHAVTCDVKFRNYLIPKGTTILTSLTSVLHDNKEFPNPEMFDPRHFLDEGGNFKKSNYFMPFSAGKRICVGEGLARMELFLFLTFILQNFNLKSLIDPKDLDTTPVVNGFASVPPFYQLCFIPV
Description: as §1, §2
(§3) For Figure 20, 1 or 5 picomoles of recombinant CYP2D6 or CYP2C19 membrane fractions from an insect cell expression system (SupersomesTM, Discovery Labware) were incubated at 37°C for 60 minutes with 200 µM D-luciferin 6' methyl ether (luciferin-ME) in 50 mM (CYP2C19) or 100 mM (CYP2D6) KPO4 (pH 7.4) with an NADPH regenerating system (as described above) in a volume of 50 µl. […] For Figure 20, the panel of human P450s was screened as described above.

CYP1A2 = biological target: T4, CYP1A2 (Homo sapiens, UniProt P05177); test: as above; format: biochemical; details: 50 µM substrate, 1 pmole P450; result in words
T4 construct: purchased Discovery Labware (BD/Gentest); host or cells: insect cell expression system (membrane fractions)
T4 sequence (P05177 2-516 limits assumed): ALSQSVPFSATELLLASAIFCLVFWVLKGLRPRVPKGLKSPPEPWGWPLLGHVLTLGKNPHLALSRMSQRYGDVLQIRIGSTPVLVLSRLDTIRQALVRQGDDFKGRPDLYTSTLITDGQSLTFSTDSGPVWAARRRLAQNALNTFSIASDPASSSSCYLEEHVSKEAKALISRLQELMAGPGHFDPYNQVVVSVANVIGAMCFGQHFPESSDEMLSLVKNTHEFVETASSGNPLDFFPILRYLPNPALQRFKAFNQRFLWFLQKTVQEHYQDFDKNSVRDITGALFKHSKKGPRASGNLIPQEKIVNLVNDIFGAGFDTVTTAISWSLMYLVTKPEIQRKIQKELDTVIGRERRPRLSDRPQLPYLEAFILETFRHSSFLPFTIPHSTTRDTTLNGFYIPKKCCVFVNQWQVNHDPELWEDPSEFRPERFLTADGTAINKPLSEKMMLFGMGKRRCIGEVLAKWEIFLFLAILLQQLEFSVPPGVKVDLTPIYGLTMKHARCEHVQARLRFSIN
Description: as §1, §2

CYP1A1 = biological target: T5, CYP1A1 (Homo sapiens, UniProt P04798); test: as above; details: 50 µM substrate, 1 pmole P450, 37°C 30 minutes; result in words
T5 sequence (P04798 1-512): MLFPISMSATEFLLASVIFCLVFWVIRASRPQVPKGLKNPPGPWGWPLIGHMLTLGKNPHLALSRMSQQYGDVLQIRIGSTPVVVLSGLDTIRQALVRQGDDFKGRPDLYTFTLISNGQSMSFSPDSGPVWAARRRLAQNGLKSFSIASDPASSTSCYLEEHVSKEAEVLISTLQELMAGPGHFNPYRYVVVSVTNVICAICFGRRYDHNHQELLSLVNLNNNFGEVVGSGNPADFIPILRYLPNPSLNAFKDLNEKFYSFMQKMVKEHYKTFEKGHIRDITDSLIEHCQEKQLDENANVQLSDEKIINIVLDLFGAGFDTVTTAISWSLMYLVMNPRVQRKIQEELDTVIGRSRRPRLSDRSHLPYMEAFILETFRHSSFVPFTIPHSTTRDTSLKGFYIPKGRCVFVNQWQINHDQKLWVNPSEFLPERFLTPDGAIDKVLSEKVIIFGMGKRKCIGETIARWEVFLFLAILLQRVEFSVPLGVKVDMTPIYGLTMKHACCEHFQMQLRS

CYP2D6 = biological target: T6, CYP2D6 (Homo sapiens, UniProt P10635); test: as above; format: biochemical; details: for P450 activity / selectivity with the derivative as substrate: result in words
T6 construct: purchased Discovery Labware (BD/Gentest); host or cells: insect cell expression system (membrane fractions)
T6 sequence (P10635 whole entry): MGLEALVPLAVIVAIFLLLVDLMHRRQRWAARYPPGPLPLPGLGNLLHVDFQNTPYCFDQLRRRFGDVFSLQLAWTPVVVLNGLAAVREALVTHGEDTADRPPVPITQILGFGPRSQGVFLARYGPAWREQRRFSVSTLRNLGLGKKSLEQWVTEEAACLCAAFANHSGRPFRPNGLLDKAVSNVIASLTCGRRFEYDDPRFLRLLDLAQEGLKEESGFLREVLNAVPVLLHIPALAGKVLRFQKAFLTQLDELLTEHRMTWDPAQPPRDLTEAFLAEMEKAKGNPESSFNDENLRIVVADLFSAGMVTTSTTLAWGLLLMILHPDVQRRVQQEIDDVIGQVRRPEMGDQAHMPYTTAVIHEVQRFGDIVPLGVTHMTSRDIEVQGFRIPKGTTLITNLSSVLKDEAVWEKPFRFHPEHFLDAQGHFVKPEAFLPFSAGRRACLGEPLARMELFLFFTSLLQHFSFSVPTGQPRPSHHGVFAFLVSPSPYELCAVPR
Description: as §1, §2, §3

## O=C(O)[C@H]1CSC(c2nc3ccc(OCc4cccc(CN5CCN(c6ccccc6)CC5)c4)cc3s2)=N1 [LucPPXE, Luciferin 3-(4-phenylpiperazin-1-yl)methylbenzyl ether]
luciferase
  background luminescence: about 2200 RLU
CYP4F12; listed as 6'(3-((4-phenylpipenzin-1-yl))methyl)benzyloxy) luciferin
  P450 activity / cross reactivity with the derivative as substrate: did not cross react
[1]
  selectivity for three members of the CYP3A subfamily: selective
CYP3A4
  P450 activity / selectivity with the derivative as substrate: substantial activity
  competition at the substrate binding sites on CYP3A4: competitive at 2 of the 3 substrate binding sites
  sensitivity of the reaction with 3A4 to DMSO: insensitive to DMSO at commonly used concentrations

## O=C(O)[C@H]1CSC(c2nc3ccc(OCc4c(F)c(F)c(F)c(F)c4F)cc3s2)=N1 [6'-(2,3,4,5,6-pentafluorobenzyloxy)-luciferin]
luciferase
  background luminescence: about 900 RLU
CYP4F12
  P450 activity / cross reactivity with the derivative as substrate: did not show substantial cross reactivity
[1]
  selectivity for three members of the CYP3A subfamily: selective
CYP3A4
  P450 activity / selectivity with the derivative as substrate: substantial activity

## 2-(7-methyoxy-quinoxalin-2-yl)-4-5-dihydro-thiazole-4-carboxylic acid [quinoxalylluciferin 6-methyl ether]
CYP4A11
  P450 activity / selectivity with the derivative as substrate: substrate

## COC(=O)[C@H]1CSC(c2nc3ccccc3s2)=N1 [carboxyl methyl ester of deoxyluciferin]
CYP2C19
  P450 activity / selectivity with the derivative as substrate: substantial activity with CYP2C 19 and strong selectivity

## O=C(OCc1cccnc1)[C@H]1CSC(c2nc3ccccc3s2)=N1 [carboxyl picolinyl ester of luciferin-H, m-picolinyl ester of luciferin-H]
CYP1A2
  P450 activity / selectivity with the derivative as substrate: showed preference
CYP2C19; purified recombinant CYP2C19 substantially free of carboxylesterases, 2 step assay
  signal when the esterase was not added, relative to the plus esterase signal: less than 10%
CYP2C19
  P450 activity / selectivity with the derivative as substrate: showed preference
CYP1A1
  P450 activity / selectivity with the derivative as substrate: showed preference

## Cc1cc(C)c(COc2ccc3nc(C4=N[C@@H](C(=O)O)CS4)sc3c2)c(C)c1 [6'(2,4,6-trimethylbenzyloxy)-luciferin, Luciferin 6-(2,4,6-trimethylbenzyl) ether]
CYP4F12
  P450 activity / cross reactivity with the derivative as substrate: did not show substantial cross reactivity
[1]
  selectivity for three members of the CYP3A subfamily: selective
CYP3A4
  P450 activity / selectivity with the derivative as substrate: substantial activity

## COC(=O)[C@H]1CSC(c2nc3ccc(OC)cc3s2)=N1 [carboxyl ester of luciferin-ME, carboxyl methyl ester of luciferin-ME]
CYP2C19
  P450 activity / selectivity with the derivative as substrate: reacted strongly
CYP2D6
  P450 activity / selectivity with the derivative as substrate: substantially increased

## COc1ccc2cc(C3=N[C@@H](C(=O)O)CS3)ccc2c1 [Naphthylluciferin 6-methyl ether, naphthyl luciferin methyl ether]
CYP4A11
  P450 activity / selectivity with the derivative as substrate: substrate

## O=C(O)[C@H]1CSC(c2nc3ccc(OCc4c(F)c(F)c(F)c(CN5CCN(c6ccccc6)CC5)c4F)cc3s2)=N1 [LucPPXE4F, 6'-(2,3,4,6-tetrafluoro-5-((4-phenylpiperizin-1-yl)methyl)benzyloxy)-luciferin]
CYP4F12
  P450 activity / cross reactivity with the derivative as substrate: did not show substantial cross reactivity
[1]
  selectivity for three members of the CYP3A subfamily: selective
CYP3A4
  P450 activity / selectivity with the derivative as substrate: substantial activity

## O=C(O)[C@H]1CSC(c2nc3ccc(OCc4ccccc4C(F)(F)F)cc3s2)=N1 [6'(o-trifluoromethylbenzyloxy)-luciferin, Luciferin 2-trifluoromethylbenzyl ether]
CYP4F12
  P450 activity / cross reactivity with the derivative as substrate: did not show substantial cross reactivity
[1]
  selectivity for three members of the CYP3A subfamily: selective
CYP3A4
  P450 activity / selectivity with the derivative as substrate: substantial activity

## COc1ccc2nc(C3=NC(C(=O)OCc4cccnc4)CS3)sc2c1 (centres unmarked) [m-picolinyl ester of luciferin methyl ether]
CYP1A2
  P450 activity / selectivity with the derivative as substrate: showed a preference
CYP2D6; purified recombinant CYP2D6 substantially free of carboxylesterases, 2 step assay
  signal when the esterase was not added, relative to the plus esterase signal: less than 10%
CYP2D6
  P450 activity / selectivity with the derivative as substrate: showed a preference
CYP1A1
  P450 activity / selectivity with the derivative as substrate: showed a preference
